According to patent publication US20110152089A1, “HERBICIDAL COMPOSITIONS COMPRISING FLUFENACET” (Bayer CropScience AG, priority 2009, published 2011):

Tests used:
VIOAR = assay: PE soil application vs incorporation into the soil, greenhouse (Table 1); format: in vivo, Viola arvensis; details: g of AS/ha: (A) 90, (B) 300, (C) 70, (A)+(B)+(C) 90 + 300 + 70, visual, about 3 weeks after application
Procedure: (§1) In the standard design of the test, seeds of various broad-leaved weed and weed grass biotypes (origins) were sown in a 8-13 cm diameter pot filled with natural soil of a standard field soil (loamy silt; non-sterile) and covered with a covering soil layer of about 1 cm. The pots were then cultivated in a greenhouse (12-16 h of light, temperature day 20-22° C., night 15-18° C.) until the time of application. The pots were treated on a laboratory track sprayer with spray liquors comprising the compositions according to the invention, mixtures of the prior art or components used individually. Application of the active compounds or active compound combinations formulated as WG, WP, EC or otherwise was carried out at the appropriate growth stages of the plants. The application rate for the spray application was 100-600 l of water/ha. After the treatment, the plants were returned to the greenhouses.
(§2) About 3 weeks after the application, the soil action or/and foliar action was assessed visually according to a scale of 0-100% in comparison to an untreated comparative group: 0%=no noticeable effect compared to the untreated comparative group; 100%=full effect compared to the untreated comparative group.
(§3) (notes: the term “seeds” also includes vegetative propagation forms such as, for example, rhizome pieces; abbreviations used: h light=hours of illumination, g of AS/ha=gram of active substance per hectare, l/ha=liter per hectare, S=sensitive, R=resistant) • 1. Pre-emergence action against weeds: seeds of various broad-leaved weed and weed grass biotypes (origins) were sown in a 8-13 cm diameter pot filled with natural soil of a standard field soil (loamy silt; non-sterile) and covered with a covering soil layer of about 1 cm. The pots were then cultivated in a greenhouse (12-16 h of light, temperature day 20-22° C., night 15-18° C.) until the time of application. The pots were treated at the BBCH stage 00-10 of the seeds/plants on a laboratory track sprayer with spray liquors comprising the compositions according to the invention, mixtures or components used individually, as WG, WP, EC or other formulations. The application rate for the spray application was 100-600 l of water/ha. After the treatment, the plants were returned to the greenhouses and, when required, treated with fertilizer and watered. • 2. Post-emergence action against weeds: seeds of various broad-leaved weed and weed grass biotypes (origins) were sown in a 8-13 cm diameter pot filled with natural soil of a standard field soil (loamy silt; non-sterile) and covered with a covering soil layer of about 1 cm. The pots were then cultivated in a greenhouse (12-16 h of light, temperature day 20-22° C., night 15-18° C.) until the time of application. […]

STEME [1] = assay: as above; format: in vivo, Stellaria media; details: g of AS/ha: (A) 90, (B) 300, (C) 70, (A)+(B)+(C) 90 + 300 + 70, visual, about 3 weeks after application
Procedure: as §1, §2
(§4) (notes: the term “seeds” also includes vegetative propagation forms such as, for example, rhizome pieces; abbreviations used: h light=hours of illumination, g of AS/ha=gram of active substance per hectare, l/ha=liter per hectare, S=sensitive, R=resistant) • 1. Pre-emergence action against weeds: seeds of various broad-leaved weed and weed grass biotypes (origins) were sown in a 8-13 cm diameter pot filled with natural soil of a standard field soil (loamy silt; non-sterile) and covered with a covering soil layer of about 1 cm. The pots were then cultivated in a greenhouse (12-16 h of light, temperature day 20-22° C., night 15-18° C.) until the time of application. The pots were treated at the BBCH stage 00-10 of the seeds/plants on a laboratory track sprayer with spray liquors comprising the compositions according to the invention, mixtures or components used individually, as WG, WP, EC or other formulations. The application rate for the spray application was 100-600 l of water/ha. After the treatment, the plants were returned to the greenhouses and, when required, treated with fertilizer and watered. • 2. Post-emergence action against weeds: seeds of various broad-leaved weed and weed grass biotypes (origins) were sown in a 8-13 cm diameter pot filled with natural soil of a standard field soil (loamy silt; non-sterile) and covered with a covering soil layer of about 1 cm. The pots were then cultivated in a greenhouse (12-16 h of light, temperature day 20-22° C., night 15-18° C.) until the time of application. The pots were treated at various BBCH stages between 11-25 of the seeds/plants, i.e. generally between two to three weeks after the start of the cultivation, on a laboratory track sprayer with spray liquors comprising the compositions according to the invention, mixtures or components used individually, as WG, WP, EC or other formulations. The application rate for the spray application was 100-600 l of water/ha. After the treatment, the plants were returned to the greenhouses and, when required, treated with fertilizer and watered. • 3. Pre-emergence action against weeds with and without incorporation of active compound: seeds of various broad-leaved weed and weed grass biotypes (origins) were sown in a 8-13 cm diameter pot filled with natural soil of a standard field soil (loamy silt; non-sterile). […]

HORVS [2] = assay: PE soil application vs incorporation into the soil, crop selectivity, greenhouse (Table 1); format: in vivo, Hordeum vulgare, summer barley; details: g of AS/ha: (A) 90, (B) 300, (C) 70, (A)+(B)+(C) 90 + 300 + 70, visual, about 3 weeks after application
Procedure: as §1, §2, §4

POAAN = assay: PO application, greenhouse (Table 2); format: in vivo, Poa annua; details: g of AS/ha: (A) 120, (B) 1200, (C) 140, (A)+(B)+(C) 120 + 1200 + 140, visual, about 3 weeks after application
Procedure: as §1, §2
(notes: the term “seeds” also includes vegetative propagation forms such as, for example, rhizome pieces; abbreviations used: h light=hours of illumination, g of AS/ha=gram of active substance per hectare, l/ha=liter per hectare, S=sensitive, R=resistant) • 1. Pre-emergence action against weeds: seeds of various broad-leaved weed and weed grass biotypes (origins) were sown in a 8-13 cm diameter pot filled with natural soil of a standard field soil (loamy silt; non-sterile) and covered with a covering soil layer of about 1 cm. The pots were then cultivated in a greenhouse (12-16 h of light, temperature day 20-22° C., night 15-18° C.) until the time of application. […]

LOLPE = assay: PE application vs pre-sowing application, greenhouse (Table 3); format: in vivo, Lolium perenne; details: g of AS/ha: (A) 90, (B) 300, (C) 140, (A)+(B)+(C) 90 + 300 + 140
Procedure: as §1, §2, §3

AVEFA = assay: as above; format: in vivo, Avena fatua; details: g of AS/ha: (A) 90, (B) 300, (C) 140, (A)+(B)+(C) 90 + 300 + 140
Procedure: as §1, §2, §3

HORVS [3] = assay: PE application vs pre-sowing application, crop selectivity, greenhouse (Table 3); format: in vivo, Hordeum vulgare, summer barley; details: g of AS/ha: (A) 90, (B) 300, (C) 140, (A)+(B)+(C) 90 + 300 + 140
Procedure: as §1, §2, §4

HORVS [4] = assay: PE application with different irrigation, crop selectivity, greenhouse (Table 4); format: in vivo, Hordeum vulgare, summer barley; details: g of AS/ha: (A) 90, (B) 300, (C) 140, (A)+(B)+(C) 90 + 300 + 140
Procedure: as §1, §2, §4

STEME [5] = assay: Activity with different soil types, greenhouse (Table 5); format: in vivo, Stellaria media; details: g of AS/ha: (A) 90, (B) 300, (C) 140, (A)+(B)+(C) 90 + 300 + 140; for activity STEME IU soil: IU soil (loamy silt standard field soil); for activity STEME IU/EC73 soil: IU/EC73 soil (heavy soil, higher organic substance)
Procedure: as §1, §2, §4

STEME [6] = assay: Resistant biotypes, PE application, greenhouse (Table 6); format: in vivo, Stellaria media; details: g of AS/ha: (A) 90, (B) 300, (C) 140, (A)+(B)+(C) 120 + 600 + 140, iodosulfuron 10; for activity STEME resistant: resistant biotype; for activity STEME sensitive: sensitive biotype
Procedure: as §1, §2, §4

LOLSS = assay: as above; format: in vivo, Lolium species; details: g of AS/ha: (A) 90, (B) 300, (C) 140, (A)+(B)+(C) 120 + 600 + 140, iodosulfuron 10; for activity LOLSS resistant: resistant (EMR) biotype; for activity LOLSS sensitive: sensitive biotype
Procedure: as §1, §2, §3

MATCH [7] = assay: Different sowing depths, PE application, greenhouse (Table 7); format: in vivo, Matricaria chamomilla; details: for activity MATCH 5 mm: sowing depth 5 mm; for activity MATCH 20 mm: sowing depth 20 mm
Procedure: as §1, §2, §4

HORVS [8] = assay: Different sowing depths, PE application, crop selectivity, greenhouse (Table 7); format: in vivo, Hordeum vulgare, summer barley; details: for activity HORVS 5 mm (crop plant): sowing depth 5 mm; for activity HORVS 20 mm (crop plant): sowing depth 20 mm
Procedure: as §1, §2, §4

MATCH [9] = assay: Different soil pH, PE application, greenhouse (Table 8); format: in vivo, Matricaria chamomilla; details: for activity MATCH pH 7.4: soil pH 7.4, g of AS/ha: (A) 90, (B) 300, (C) 140, (A)+(B)+(C) 90 + 300 + 140; for activity MATCH pH 8.4: soil pH 8.4, g of AS/ha: (A) 90, (B) 300, (C) 140, (A)+(B)+(C) 90 + 300 + 140
Procedure: as §1, §2, §4

[10] = application 7 days prior to sowing
[11] = g of AS/ha: (A) 90, (B) 300, (C) 140, (A)+(B)+(C) 90 + 300 + 140
[12] = g of AS/ha: (A) 90, (B) 300, (C) 140, (A)+(B)+(C) 90 + 300 + 140, listed as trifluralin

Row | SMILES | activity VIOAR (VIOAR; PE application) [%] | activity VIOAR (VIOAR; incorporation into the soil) [%] | activity STEME (STEME [1]; PE application) [%] | activity STEME (STEME [1]; incorporation into the soil) [%] | activity HORVS (crop plant) (HORVS [2]; PE application) [%] | activity HORVS (crop plant) (HORVS [2]; incorporation into the soil) [%] | activity POAAN (POAAN) [%] | activity LOLPE (LOLPE; PE application) [%] | activity LOLPE (LOLPE; [10]) [%] | activity AVEFA (AVEFA; PE application) [%] | activity AVEFA (AVEFA; [10]) [%] | activity HORVS (crop plant) (HORVS [3]; PE application) [%] | activity HORVS (crop plant) (HORVS [3]; [10]) [%] | activity HORVS (crop plant) (HORVS [4]; irrigation from above) [%] | activity HORVS (crop plant) (HORVS [4]; irrigation from below) [%] | activity STEME IU soil (STEME [5]) [%] | activity STEME IU/EC73 soil (STEME [5]) [%] | activity STEME resistant (STEME [6]) [%] | activity STEME sensitive (STEME [6]) [%] | activity LOLSS resistant (LOLSS) [%] | further results
1 | CSc1nnc(C(C)(C)C)c(=O)n1N [(C) metribuzin, 4-amino-6-(1,1-dimethyl-ethyl)-3-(methylthio)-1,2,4-triazin-5-(4H)-one] | 0 | 10 | 75 | 0 | 30 | 70 | 79 | 20 | 80 | 70 | 0 | 30 | 20 | 80 | 10 | 75 | 5 | 98 | 100 | 70 | activity LOLSS sensitive (LOLSS): 70%; activity MATCH 5 mm (MATCH [7]; [11]): 100%; activity MATCH 20 mm (MATCH [7]; [11]): 70%; activity HORVS 5 mm (crop plant) (HORVS [8]; [11]): 70%; activity HORVS 20 mm (crop plant) (HORVS [8]; [11]): 30%; activity MATCH pH 7.4 (MATCH [9]): 100%; activity MATCH pH 8.4 (MATCH [9]): 98%
2 | CCCN(CCC)c1c([N+](=O)[O-])cc(C(F)(F)F)cc1[N+](=O)[O-] [(B) trifluralin, 2,6-dinitro-N,N-dipropyl-4-(trifluoromethyl)benzenamine] | 50 | 0 | 10 | 70 | 0 | 35 | 40 | 90 | 0 | 0 | 60 | 0 | 20 | 90 | 60 | 50 | 5 | 20 | 20 | 83 | activity LOLSS sensitive (LOLSS): 98%; activity MATCH 5 mm (MATCH [7]; [11]): 0%; activity MATCH 5 mm (MATCH [7]; [12]): 100%; activity MATCH 20 mm (MATCH [7]; [11]): 30%; activity MATCH 20 mm (MATCH [7]; [12]): 70%; activity HORVS 5 mm (crop plant) (HORVS [8]; [11]): 25%; activity HORVS 5 mm (crop plant) (HORVS [8]; [12]): 70%; activity HORVS 20 mm (crop plant) (HORVS [8]; [11]): 20%; activity HORVS 20 mm (crop plant) (HORVS [8]; [12]): 30%; activity MATCH pH 7.4 (MATCH [9]): 0%; activity MATCH pH 8.4 (MATCH [9]): 0%
